US4594347A, “Pyrrolo [3,2,1-ij]-quinoline carboxylic acid compound” (Otsuka Pharmaceutical Co. Limited, priority 1983, dated 1986)
One block for each compound: values may come before it.

Experiments:
[1] = tested on: Pseudomonas aeruginosa E-2; assay: Therapeutic effects of compounds in urinary infectious diseases in vivo; set-up: species or system JCL:S.D. female rats; details: E2, 96 h, female S.D. rats, bladder infection, oral at 6, 24 and 48 hours, urine and kidney colonies after 4 days, Probit method, read-out: 50% effective dose (ED50)
Method: Pseudomonas aeruginosa E-2 was cultured in a nutrient medium at 37° C. for 18 hours and the culture broth thus obtained was diluted with the same medium to prepare a solution of the microorganism (cell concentration: 10^7 cells/ml). To the solution were dipped a UV-sterilized disc [glyceryl monomyristate (manufactured by Nikko Chemicals, Japan) and sodium cetylsulfurate (manufactured by Nikko Chemicals, Japan) in a weight ratio of 9:1; diameter: 2.0 mm, length: 3.0 mm] under ice-cooling for 1.5 hour to give a microorganism-containing disc for inoculation.
The above-prepared disc was surgically inserted into the bladder of JCL:S.D. female rats (one group: four rats) anaesthetized with secobarbital sodium. After the animals have been infected with the microorganism, i.e. 6 hours after the insertion of the disc, 1% oxamide-containing feed and water were administered to the animals. The oxamide-containing feed was changed to a normal feed after 24 hours. Test compounds 1, 7 and 8 as used in Test 1 (in the form of a 0.5% CMC suspension) were each orally administered to the animals in a dose of 16 mg/kg, 8.0 mg/kg, 4.0 mg/kg, 2.0 mg/kg, and 1.0 mg/kg at 6, 24 and 48 hours after the insertion of disc. After 4 days from the infection, urine was collected and further the kidney was taken out from the animals, and then the presence of microorganism was checked as to the collected urine and kidney. That is, 0.1 ml of the urine was applied onto an agar plate medium and cultured at 37° C. for 18 hours, and the number of colonies was counted. Besides, the taken out kidney was divided into two, and the plain section was contacted to an agar plate medium, and the medium was cultured likewise, and the number of colonies was counted, likewise. When the number of colonies was less than 10, it was evaluated as "effective," and when the number of colonies was more than 10, it was evaluated as "ineffective". […]

[2] = tested on: Staphylococcus aureus FDA 209P; assay: Antimicrobial test in vitro (MIC, agar plate dilution method); type: cell-based; set-up: unit not given here; details: S. aureus FDA 209P
Method: (§1) The antimicrobial activities of the following test compounds were tested by measuring the minimum inhibitory concentration (MIC) by an agar plate dilution method [cf. Chemotherapy, 22, 1126-1128 (1974)]. The test microorganisms were used in a concentration of 1×10^8 cells/ml (optical dencity (O.D.) at 660 m: 0.07-0.16) and 1×10^6 cells/ml (dilution: 100 folds).
A: Staphylococcus aureus FDA 209P

[3] = tested on: Streptococcus pyogenes II D S-23; assay: as above; type: cell-based; set-up: unit not given here; details: S. pyogenes II D S-23
Method: as §1
B: Streptococcus pyogenes II D S-23

[4] = tested on: Escherichia coli NIHJ JC-2; assay: as above; type: cell-based; set-up: unit not given here; details: E. coli NIHJ JC-2
Method: as §1
C: Escherichia coli NIHJ JC-2

Escherichia coli No. 29 = assay: as above; type: cell-based; set-up: unit not given here; details: E. coli No. 29
Method: as §1
D: Escherichia coli No. 29

[5] = tested on: Klebsiella pneumoniae NCTC 9632; assay: as above; type: cell-based; set-up: unit not given here; details: K. pneumoniae NCTC 9632
Method: as §1
E: Klebsiella pneumoniae NCTC 9632

Proteus mirabilis 1287 = assay: as above; type: cell-based; set-up: unit not given here; details: P. mirabilis 1287
Method: as §1
F: Proteus mirabilis 1287

[6] = tested on: Proteus morganii II D Kono; assay: as above; type: cell-based; set-up: unit not given here; details: P. morganii II D Kono
Method: as §1
G: Proteus morganii II D Kono

[7] = tested on: Serratia marcescens IFO 12648; assay: as above; type: cell-based; set-up: unit not given here; details: S. marcescens IFO 12648
Method: as §1
H: Serratia marcescens IFO 12648

[8] = tested on: Acinetobacter calcoaceticus AC-54; assay: as above; type: cell-based; set-up: unit not given here; details: A. calcoaceticus AC-54
Method: as §1
I: Acinetobacter calcoaceticus AC-54

[9] = tested on: Pseudomonas aeruginosa ATCC 10145; assay: as above; type: cell-based; set-up: unit not given here; details: P. aeruginosa ATCC 10145
Method: as §1
J: Pseudomonas aeruginosa ATCC 10145

[10] = tested on: Pseudomonas aeruginosa E-2; assay: as above; type: cell-based; set-up: unit not given here; details: P. aeruginosa E-2
Method: as §1
K: Pseudomonas aeruginosa E-2

[11] = Measurement of concentration of compounds in urine; type: in vivo; details: male rats, oral 25 mg/kg, 0-24 hours
Method: (§2) The same Test Compound 1 as used in the above Test 1 was orally administered in a dose of 25 mg/kg to three male rats (weighing 190-242 g), and blood and urine were collected from the animals at intervals. The concentration of the test compound in the collected urine and blood was measured by a thin layer plate cup (6 ml medium/.phi.90 mm shall) method wherein Bacillus subtilis ATCC 6633 was used as a test microorganism and a sensitive medium (manufactured by Eiken Kagaku K.K., Japan) was used as a medium. The results are shown in Table 2 (the concentration in urine) and in Table 3 (the concentration in blood), respectively.

[12] = Measurement of concentration of compounds in blood; type: in vivo; details: rat, male rats, oral 25 mg/kg
Method: as §2

SMILES: CC1CCc2c(N3CCN(C)CC3)c(F)cc3c(=O)c(C(=O)O)cn1c23 (stereo not drawn) [Test compound 8, 8-(4-methyl-1-piperazinyl)-9-fluoro-5-methyl-6,7-dihydro-1-oxo-1H,5H-benzo[ij]quinolidine-2-carboxylic acid]
ED50 [1]: 12 mg/kg

SMILES: CC1Cc2c(N3CCN(C)CC3)c(F)cc3c(=O)c(C(=O)O)cn1c23 (stereo not drawn) [Test compound 7, 8-fluoro-2-methyl-6-oxo-9-(4-methyl-1-piperazinyl)-1,2-dihydro-pyrrolo[3,2,1-ij]quinoline-5-carboxylic acid]
ED50 [1]: 6.15 mg/kg

minimum inhibitory concentration (MIC) ([2]; 1×10^6 cells/ml): 0.2
minimum inhibitory concentration (MIC) ([2]; 1×10^8 cells/ml): 0.39
minimum inhibitory concentration (MIC) ([3]; 1×10^6 cells/ml): 3.13
minimum inhibitory concentration (MIC) ([3]; 1×10^8 cells/ml): 3.13
minimum inhibitory concentration (MIC) ([4]; 1×10^6 cells/ml): 0.05
minimum inhibitory concentration (MIC) ([4]; 1×10^8 cells/ml): 0.1
minimum inhibitory concentration (MIC) (Escherichia coli No. 29; 1×10^6 cells/ml): 0.1
minimum inhibitory concentration (MIC) (Escherichia coli No. 29; 1×10^8 cells/ml): 0.1
minimum inhibitory concentration (MIC) ([5]; 1×10^6 cells/ml): 0.2
minimum inhibitory concentration (MIC) ([5]; 1×10^8 cells/ml): 0.2
minimum inhibitory concentration (MIC) (Proteus mirabilis 1287; 1×10^6 cells/ml): 0.39
minimum inhibitory concentration (MIC) (Proteus mirabilis 1287; 1×10^8 cells/ml): 0.78
minimum inhibitory concentration (MIC) ([6]; 1×10^6 cells/ml): 0.2
minimum inhibitory concentration (MIC) ([6]; 1×10^8 cells/ml): 0.39
minimum inhibitory concentration (MIC) ([7]; 1×10^6 cells/ml): 0.2
minimum inhibitory concentration (MIC) ([7]; 1×10^8 cells/ml): 0.2
minimum inhibitory concentration (MIC) ([8]; 1×10^6 cells/ml): 0.39
minimum inhibitory concentration (MIC) ([8]; 1×10^8 cells/ml): 0.39
minimum inhibitory concentration (MIC) ([9]; 1×10^6 cells/ml): 0.78
minimum inhibitory concentration (MIC) ([9]; 1×10^8 cells/ml): 1.56
minimum inhibitory concentration (MIC) ([10]; 1×10^6 cells/ml): 0.78
minimum inhibitory concentration (MIC) ([10]; 1×10^8 cells/ml): 1.56
Recovered amount in urine [11]: 1471.6 µg
dose excreted at 24 h ([11]; rat, urine, read-out: Recovery rate in urine): 27.2%
concentration at 0.5 h ([12]; 0.5 hour after the administration): 3190 ng/mL
concentration at 1 h ([12]; 1 hour after the administration): 2490 ng/mL
concentration at 2 h ([12]; 2 hours after the administration): 1920 ng/mL
concentration at 4 h ([12]; 4 hours after the administration): 900 ng/mL
concentration at 6 h ([12]; 6 hours after the administration): 600 ng/mL
concentration at 8 h ([12]; 8 hours after the administration): 310 ng/mL
SMILES: CC1Cc2c(N3CCN(C)CC3)c(F)c(N)c3c(=O)c(C(=O)O)cn1c23 (stereo not drawn) [Compound 1, 8-fluoro-2-methyl-9-(4-methyl-1-piperazinyl)-7-amino-6-oxo-1,2-dihydro-pyrrolo[3,2,1-ij]quinoline-5-carboxylic acid]
ED50 [1]: 1.53 mg/kg
